Measurements: patent publication US20030176366A1, “Topical application of ascorbic acid compounds for augmenting the synthesis of epidermal ceramides” (SOCIETE L'OREAL S.A., priority 2000, published 2003)

Experiments:
reconstructed epidermes = assay: Lipid profile of treated reconstructed epidermes (densitometric analysis); assay type: cell-based; conditions: applied for 6 days at 1.10×10^−4 M; relative to the control and relative to ascorbic acid; not quantified
Protocol: The test described in Example 1 was repeated using various ascorbic acid derivatives, applied for 6 days at 1.10×10^-4 M on reconstructed […] subjected to 7 days of culture. The quantity of epidermal ceramides produced was, however, not quantified. Instead, a densitometric analysis was carried out using a CAMAG TLC® model Scanner 3 densitometric reader. The lipid profile of the treated […] determined, in which: The lipid content was determined of the sample of reconstructed epidermis either untreated (control), or treated with ascorbic acid (vitamin C) or with one of the ascorbic acid derivatives A to G indicated above.

[1] = system: skin equivalent marketed by EPISKIN; assay: Effect on the synthesis of epidermal lipids in EPISKIN skin equivalent (HPTLC, densitometry); assay type: cell-based; conditions: for percentage increase in Ceramides 4-7 relative to the untreated control / percentage increase in cer. 6-7 relative to the untreated control: treated for five days
Protocol: Ascorbyl glucoside and ascorbic acid itself were tested on a skin equivalent marketed by EPISKIN (Lyon, France), after culturing the latter for 7 days. The culture and assay media were those contained in the kit marketed by the supplier. Each compound was tested at 5 μg/ml and 0.05 μg/ml (as vitamin C equivalent) in the culture medium. The reconstructed epidermes were treated for five days, the culture medium being replaced every 48 hours. The control consisted of an identical epidermis equivalent which was subjected to topical application of culture medium without the compound to be tested.
At the end of the incubation period, the epidermis equivalent was detached from its collagenic support. The preparation of the lipids of the epidermis equivalent and their analysis by HPTLC or high-performance thin-layer chromatography were carried out according to the technique and with the buffers described by M. Ponec (1991, Adv. Lipid Res., 24:83-117). At the end of the migration, densitometric analysis was carried out using a CAMAG TLC model Scanner 3 densitometric reader.
The results obtained are reported in the Table below as a percentage increase in ceramides 4, 5, 6 and 7 relative to the untreated control.

[2] = 0.05 μg/ml as vitamin C equiv. in culture medium
[3] = 5 μg/ml as vitamin C equiv. in culture medium

In the case of `O=C1O[C@H]([C@@H](O)CO)C(O)=C1OS(=O)(=O)[O-].O=C1O[C@H]([C@@H](O)CO)C(O)=C1OS(=O)(=O)[O-].[Ba+2]` [Compound F, barium 2-ascorbyl sulfate, reference compound], the “polar ceramide content of reconstructed epidermes / effect on epidermal lipogenesis” value (reconstructed epidermes) was “no significant effect on the epidermal lipogenesis”.
`O=C1O[C@H]([C@@H](O)CO)C(O)=C1O` [ascorbic acid] was tested, and the “percentage increase in Ceramides 4-7 relative to the untreated control” value [1, 2] was “+7%”, the “percentage increase in cer. 6-7 relative to the untreated control” value [1, 2] was “+15%” and the “percentage increase in Ceramides 4-7 relative to the untreated control” value [1, 3] was “+21%”. For the same compound, the “percentage increase in cer. 6-7 relative to the untreated control” value [1, 3] was −17%.
`O=C1O[C@H]([C@@H](O)CO)C(O)=C1O[C@H]1O[C@H](CO)[C@@H](O)[C@H](O)[C@H]1O` [ascorbyl glucoside, 2-O-α-D-glucopyranosyl of L-ascorbic acid] was tested, and the “percentage increase in Ceramides 4-7 relative to the untreated control” value [1, 2] was “+11%”, the “percentage increase in cer. 6-7 relative to the untreated control” value [1, 2] was “+65%” and the “percentage increase in Ceramides 4-7 relative to the untreated control” value [1, 3] was “+40%”. The “percentage increase in cer. 6-7 relative to the untreated control” value [1, 3] was “+59%” and the “increase in the synthesis of the epidermal lipids (in particular of the most polar ceramides) compared with ascorbic acid” value ([1]; tested at the same concentration as ascorbic acid) was “much higher for ascorbyl glucoside than for ascorbic acid”.
For `CC1(C)OCC(C2OC(=O)C(O[C@H]3O[C@H](CO)[C@@H](O)[C@H](O)[C@H]3O)=C2O)O1` (stereo partly drawn) [Compound A, 2-O-α-D-glucopyranosyl of (5,6-isopropylidene)ascorbic acid], the “polar ceramide content of reconstructed epidermes / effect on epidermal lipogenesis” value (reconstructed epidermes) was “significantly increases the polar ceramide content”.
With `O=C(/C=C/c1ccccc1)OC1=C(O)[C@@H]([C@@H](O)CO)OC1=O` [Compound B, ascorbyl 2-cinnamate] the “polar ceramide content of reconstructed epidermes / effect on epidermal lipogenesis” value (reconstructed epidermes) was “significantly increases the polar ceramide content”.
For `COC(=O)COC1=C(OCC(=O)OC)C(C(O)CO)OC1=O` (stereo not shown) [Compound E, ascorbyl 2,3-bis(methoxycarbonyl-methoxy) ether, reference compound], the “polar ceramide content of reconstructed epidermes / effect on epidermal lipogenesis” value (reconstructed epidermes) was “no significant effect on the epidermal lipogenesis”.
For `COc1cc(/C=C/C(=O)OC2=C(O)[C@@H]([C@@H](O)CO)OC2=O)ccc1O` [Compound C, ascorbyl 2-ferulate], the “polar ceramide content of reconstructed epidermes / effect on epidermal lipogenesis” value (reconstructed epidermes) was “significantly increases the polar ceramide content”.
With `CCCCCCCCCCCCCCCC(=O)OC1=C(O)C(C2COC(C)(C)O2)OC1=O` (stereo not shown) [Compound D, (5,6-isopropylidene)ascorbyl 2-hexadecanoate] the “polar ceramide content of reconstructed epidermes / effect on epidermal lipogenesis” value (reconstructed epidermes) was “significantly increases the polar ceramide content”.
In the case of `CC1(C)OCC(C2OC(=O)C(OC(=O)c3ccccc3)=C2O)O1` (stereo not shown) [Compound G, (5,6-isopropylidene)ascorbyl 2-benzoate], the “polar ceramide content of reconstructed epidermes / effect on epidermal lipogenesis” value (reconstructed epidermes) was “significantly increases the polar ceramide content”.
